Measurements as given in patent US11465984B2, “Compound having ERK kinase inhibitory activity and use thereof” (SHANGHAI HAIHE PHARMACEUTICAL CO., LTD., priority 2017, dated 2022).
In brackets after ≈: the same amount, converted by molar mass. Where two headings read alike, the source gives them in different places.

Assays:
[1] = Chemical stability assay in solutions with various pH values (UPLC); assay type: physicochemical
Text: 1. Detection Means and Conditions Used in the Chemical Stability Assay
• Detection method: Ultra-high performance liquid chromatography (UPLC) Chromatographic Conditions: • System: Ultra-high performance liquid chromatography system including pump, automatic sample injector, detector, and column oven • Column Waters Acquity UPLC BEH C18 (2.1*50 mm, 1.7 μm) • Detector: PDA detector • Detection wavelength: 225 nm • Mobile phase: A: 0.05% trifluoroacetic acid in water • B: acetonitrile • Gradient:
• Flow rate: 0.4 ml/min • Column temperature: 40° C. • Injecion volume: 2 μl 2. Study on the Chemical Stability of the Compounds of the Invention (1). Formulation of Solutions of Test Compound P9
Compound P9 was formulated as solutions in different buffer systems at a concentration of 0.2 mg/ml using PEG400 as cosolvent. These solutions were used for chemical stability study. The solutions with various pH values were formulated as follows: […]
Conditions for the chemical stability assay: the solutions of Compound P9 with various pH values were stored at 37° C. for 24 h. The content of Compound P9 was determined by HPLC at 0, 4, 8, 12, 14 and 24 h. […]

[2] = Pharmacokinetic study, single IV and PO administration to ICR mice; assay type: in vivo
Description: The pharmacokinetic parameters of Compound P9 of the invention and the representative compounds of WO2017/114510A1 in mice were determined in this Example.
(1) In Vivo Pharmacokinetics Protocol for Single Intravenous (IV) and Oral (PO) Administration to ICR Mice
The concentration during formulation of test substances was calculated on the basis of pure free base.
The test substance was accurately weighed, and added with the excipients (5% DMSO+5% Solutol+90% saline) in the specified amounts. After complete dissolution, the dosing solution for intravenous injection was obtained at the concentration of 0.2 mg/mL.
The test compound was accurately weighed, and added with the excipients (0.4% methylcellulose (viscosity: 400 cps)) in the specified amount. After sufficiently mixing, the dosing solution for oral administration was obtained at the concentration of 1 mg/mL.
Forty male SPF grade ICR mice were purchased from Shanghai Xipuer-Bikai Laboratory Animal Co., Ltd., and 30 normal healthy ICR mice of them passed the physical examination and were used in this study. Animal weight: 20.12-25.56 g.
Blood was collected through the orbit or through cardiac puncture after carbon dioxide (CO2) euthanasia. About 0.20 milliliter (mL) of blood was collected for each sample with heparin sodium as anticoagulant agent. The samples were placed on ice after collection. […]
The biological samples of the test substances were analyzed by LC-MS/MS. […]
The pharmacokinetic parameters were calculated from the blood concentration data of the drug, using WinNonlin 7.0 to provide the parameters such as AUC0-t, AUC0-∞, MRT0-∞, Cmax, Tmax, and T1/2, and the average and standard deviation thereof.
For those samples with concentrations below the lower limit of quantitation, when calculating the pharmacokinetic parameters, samples collected before Cmax should be calculated as zero, and samples collected at the points after Cmax should be calculated as being below the limit of qualitification (BLQ).

[3] = Thermodynamic solubility assay; assay type: physicochemical; conditions: thermodynamic from solid, 37° C.
Description: The thermodynamic solubility of the compounds of the invention was determined in this Example
(3) Assay Protocol: Blank Vehicle with Different pH Values: • PH7.4: DPBS • PH6.8: 9900 μL HBSS+100 μL HEPS+5 μL 2N NaOH • […]: DPBS adjusted with 2N HCl to pH 2.0 Incubation: • About 3 mg of the compound was weighed, added with 500 μL of blank vehicle, and shaked at 37° C. for 24 h. Sample Treatment: • After incubation, the samples were centrifuged for 30 min, and the supernatant was transferred to a new EP tube and further centrifuged for 30 min • After centrifugation, the samples were diluted by 100 times with ACN/H2O (V/V, 1:1). • Linear concentration range from 12.5 nM to 1 mM was configured with ACN/H2O (V/V, 1:1). Biological Analysis: • All samples were mixed with water at the 1:1 ratio by volume, centrifuged at 4000 rpm for 5 min, and analyzed by LC-MS/MS. Analysis Methods:
Chromatography Conditions: • Analysis column: Acquity BEH C18 (1.7 μm; 2.1×50 mm, Waters) • Mobile phase A: 0.1% FA in H2O • Mobile phase B: 0.1% FA in CAN/MEOH (9:1, V/V) • Gradient: as shown in the table below.
MS/MS System • Multiple Reaction Monitoring (MRM) mode was used: […]

Percentage (%) of the peak area of the total impurity ([1]; solution pH 2.0, 37° C., 0 h): 0.84%
Percentage (%) relative to the peak area of the compound at the original point ([1]; solution pH 2.0, 37° C., 0 h): 100.0%
Percentage (%) of the peak area of the total impurity ([1]; solution pH 2.0, 37° C., 4 h): 0.85%
Percentage (%) relative to the peak area of the compound at the original point ([1]; solution pH 2.0, 37° C., 4 h): 100.1%
Percentage (%) of the peak area of the total impurity ([1]; solution pH 2.0, 37° C., 8 h): 0.85%
Percentage (%) relative to the peak area of the compound at the original point ([1]; solution pH 2.0, 37° C., 8 h): 101.0%
Percentage (%) of the peak area of the total impurity ([1]; solution pH 2.0, 37° C., 12 h): 0.85%
Percentage (%) relative to the peak area of the compound at the original point ([1]; solution pH 2.0, 37° C., 12 h): 100.6%
Percentage (%) of the peak area of the total impurity ([1]; solution pH 2.0, 37° C., 14 h): 0.84%
Percentage (%) relative to the peak area of the compound at the original point ([1]; solution pH 2.0, 37° C., 14 h): 100.6%
Percentage (%) of the peak area of the total impurity ([1]; solution pH 2.0, 37° C., 24 h): 0.85%
Percentage (%) relative to the peak area of the compound at the original point ([1]; solution pH 2.0, 37° C., 24 h): 101.0%
Percentage (%) of the peak area of the total impurity ([1]; solution pH 6.8, 37° C., 0 h): 0.75%
Percentage (%) relative to the peak area of the compound at the original point ([1]; solution pH 6.8, 37° C., 0 h): 100.0%
Percentage (%) of the peak area of the total impurity ([1]; solution pH 6.8, 37° C., 4 h): 0.69%
Percentage (%) relative to the peak area of the compound at the original point ([1]; solution pH 6.8, 37° C., 4 h): 101.0%
Percentage (%) of the peak area of the total impurity ([1]; solution pH 6.8, 37° C., 8 h): 0.71%
Percentage (%) relative to the peak area of the compound at the original point ([1]; solution pH 6.8, 37° C., 8 h): 101.4%
Percentage (%) of the peak area of the total impurity ([1]; solution pH 6.8, 37° C., 12 h): 0.71%
Percentage (%) relative to the peak area of the compound at the original point ([1]; solution pH 6.8, 37° C., 12 h): 101.6%
Percentage (%) of the peak area of the total impurity ([1]; solution pH 6.8, 37° C., 14 h): 0.68%
Percentage (%) relative to the peak area of the compound at the original point ([1]; solution pH 6.8, 37° C., 14 h): 100.8%
Percentage (%) of the peak area of the total impurity ([1]; solution pH 6.8, 37° C., 24 h): 0.68%
Percentage (%) relative to the peak area of the compound at the original point ([1]; solution pH 6.8, 37° C., 24 h): 101.7%
Percentage (%) of the peak area of the total impurity ([1]; solution pH 7.4, 37° C., 0 h): 0.72%
Percentage (%) relative to the peak area of the compound at the original point ([1]; solution pH 7.4, 37° C., 0 h): 100.0%
Percentage (%) of the peak area of the total impurity ([1]; solution pH 7.4, 37° C., 4 h): 0.67%
Percentage (%) relative to the peak area of the compound at the original point ([1]; solution pH 7.4, 37° C., 4 h): 100.3%
Percentage (%) of the peak area of the total impurity ([1]; solution pH 7.4, 37° C., 8 h): 0.65%
Percentage (%) relative to the peak area of the compound at the original point ([1]; solution pH 7.4, 37° C., 8 h): 101.4%
Percentage (%) of the peak area of the total impurity ([1]; solution pH 7.4, 37° C., 12 h): 0.67%
Percentage (%) relative to the peak area of the compound at the original point ([1]; solution pH 7.4, 37° C., 12 h): 100.9%
Percentage (%) of the peak area of the total impurity ([1]; solution pH 7.4, 37° C., 14 h): 0.71%
Percentage (%) relative to the peak area of the compound at the original point ([1]; solution pH 7.4, 37° C., 14 h): 101.3%
Percentage (%) of the peak area of the total impurity ([1]; solution pH 7.4, 37° C., 24 h): 0.74%
Percentage (%) relative to the peak area of the compound at the original point ([1]; solution pH 7.4, 37° C., 24 h): 101.1%
chemical stability (conclusion in words) ([1]; storage in solutions of various pH at 37° C. for 24 h): good chemical stability
CLz [2]: CLz/(L/hr/kg): 0.36
F ([2]; po): F/(%, po): 60.55
nAUC0-t ([2]; po): nAUC0-t/(ng · h/ mL, po): 1696.3
solubility at 24 h ([3]; HBSS/HEPES 10 mM/BSA 0.1% pH 6.8, pH 6.8, aqueous buffer, read-out: Maximum solubility in pH 6.8 HBSS/HEPES 10 mM/BSA 0.1%): 267 ± 3 µM (≈ 124 µg/mL)
solubility at 24 h ([3]; PBS (DPBS) pH 2.0, pH 2, aqueous buffer, read-out: Maximum solubility in pH 2.0 PBS): 2850 ± 62 µM (≈ 1320 µg/mL)
solubility at 24 h ([3]; PBS buffer, pH 7.4, aqueous buffer, read-out: Maximum solubility in pH 7.4 PBS): 544 ± 5.3 µM (≈ 252 µg/mL)
Structure (SMILES): Cn1nccc1Nc1cc(-c2cc(F)c3c(c2)CCN3C(=O)Cc2cccnc2Cl)ccn1 [Example P9, 2-(2-chloropyridin-3-yl)-1-(7-fluoro-5-(2-((1-methyl-1H-pyrazol-5-yl)amino)pyridin-4-yl)indolin-1-yl)ethan-1-one]
